Experimental data published in patent US12629419B2, “Prevention or mitigation of T-cell engaging agent-related adverse effects” (Hoffmann-La Roche Inc., priority 2020, dated 2026).

Tested on: CD20-TCB-induced cytokine release
Test: CD20-TCB-induced cytokine release in non-tumor bearing humanized NSG mice (serum, Luminex)
Type: in vivo
Details: serum 4 hours and 24 hours after CD20-TCB; ruxolitinib 30 to 60 mg/kg
Protocol: FIG. 95. In vivo experiment timelines and dosing schedule.
Different doses of mTOR, JAK and Src kinase inhibitors were tested to determine the optimal dose that reduces CD20-TCB-induced cytokine release while minimally interfering with B cell depletion. […] The doses of 30 and 60 mg/kg were tested for ruxolitinib and the doses of 10 and 50 mg/kg were tested for dasatinib. To reproduce the clinical route of administration, the different kinase inhibitors were given orally (p.o.) once or twice per day as depicted in FIG. 95. Mice were bled 4 hours and 24 hours after the treatment with CD20-TCB (FIG. 95) to collect serum for cytokine level measurements by Luminex. Additionally, blood was collected 48 hours and 72 hours (termination) post treatment with CD20-TCB to measure the percentage of CD19+ B cells among human CD45+ cells by flow cytometry (FIG. 95).

Which “CD20-TCB-mediated cytokine release other than IL-2 and GM-CSF” value does the source give for `N#CC[C@H](C1CCCC1)n1cc(-c2ncnc3[nH]ccc23)cn1` [ruxolitinib, Ruxolitinib] here?
The value was “durably reduced”.
